Read-outs that look alike come from different tables or passages of the source.
Assays:
Assay in all cases: Ras-Raf disruption / FRET / MOA assay (BRAF RBD)
Format in all cases: biochemical
[1] = target: KRAS G12D (Homo sapiens, UniProt P01116+P62937, G12D); conditions: with Cyclophilin A
In short: (§1)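 Compound-induced Ras–Cyclophilin A ternary complex disrupting BRAF RBD binding, read as IC50 from reduced TR-FRET ratio relative to DMSO. Final: Ras-GMPPNP 12.5 nM, BRAF RBD 50 nM, Cyclophilin A 25 μM, top compound 30 μM (3-fold, 10 points); 3 h at 25 °C, then 1.5 h with detection antibodies.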

[2] = target: KRAS G12S (Homo sapiens, UniProt P01116+P62937, G12S); conditions: with Cyclophilin A
In short: as §1

[3] = target: KRAS G12V (Homo sapiens, UniProt P01116+P62937, G12V); conditions: with Cyclophilin A
In short: as §1

[4] = target: KRAS G13C (Homo sapiens, UniProt P01116+P62937, G13C); conditions: with Cyclophilin A
In short: as §1

[5] = target: KRAS G13D (Homo sapiens, UniProt P01116+P62937, G13D); conditions: with Cyclophilin A
In short: as §1

[6] = target: KRAS Q61H (Homo sapiens, UniProt P01116+P62937, Q61H)
In short: as §1

[7] = target: KRAS WT (Homo sapiens, UniProt P01116+P62937); conditions: with Cyclophilin A
In short: as §1

[8] = target: NRAS G12C (Homo sapiens, UniProt P01111+P62937, G12C)
In short: as §1

[9] = target: NRAS Q61K (Homo sapiens, UniProt P01111+P62937, Q61K)
In short: as §1

[10] = target: NRAS Q61R (Homo sapiens, UniProt P01111+P62937, Q61R)
In short: as §1

[11] = target: NRAS WT (Homo sapiens, UniProt P01111+P62937)
In short: as §1

[12] = target: KRAS G12C (Homo sapiens, UniProt P01116+P62937, G12C); conditions: with Cyclophilin A
In short: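 TR-FRET read-out after 1.5 h with anti-His Eu-W1024 (10 nM) and anti-GST APC (50 nM), following 3 h at 25 °C of compound (top 30 μM, 3-fold, 10 points) with 25 μM Cyclophilin A, 12.5 nM GMPPNP-loaded K-Ras G12C and 50 nM BRAF RBD; IC50 reported.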

[13] = Ras-Raf disruption, read-out: KRAS G12D FRET data IC50
[14] = Ras-Raf disruption, read-out: KRAS G12S FRET data IC50
[15] = Ras-Raf disruption, read-out: KRAS G12V FRET data IC50
[16] = Ras-Raf disruption, read-out: KRAS G13C FRET data IC50
[17] = Ras-Raf disruption, read-out: KRAS G13D FRET data IC50
[18] = KRAS Q61H, read-out: KRAS Q61H FRET data IC50
[19] = Ras-Raf disruption, read-out: KRAS WT FRET data IC50
[20] = NRAS G12C, read-out: NRAS G12C FRET data IC50
[21] = NRAS Q61K, read-out: NRAS Q61K FRET data IC50
[22] = NRAS Q61R, read-out: NRAS Q61R FRET data IC50
[23] = NRAS WT, read-out: NRAS WT FRET data IC50
[24] = Ras-Raf disruption, read-out: KRAS G12C FRET data IC50
[25] = KRAS G12D FRET data IC50, Ras-Raf disruption
[26] = KRAS G12S FRET data IC50, Ras-Raf disruption
[27] = KRAS G12V FRET data IC50, Ras-Raf disruption
[28] = KRAS G13C FRET data IC50, Ras-Raf disruption
[29] = KRAS G13D FRET data IC50, Ras-Raf disruption
[30] = KRAS WT FRET data IC50, Ras-Raf disruption
[31] = NRAS G12C FRET data IC50, NRAS G12C
[32] = KRAS G12C FRET data IC50, Ras-Raf disruption

NRAS WT, sequence (P01111 whole entry): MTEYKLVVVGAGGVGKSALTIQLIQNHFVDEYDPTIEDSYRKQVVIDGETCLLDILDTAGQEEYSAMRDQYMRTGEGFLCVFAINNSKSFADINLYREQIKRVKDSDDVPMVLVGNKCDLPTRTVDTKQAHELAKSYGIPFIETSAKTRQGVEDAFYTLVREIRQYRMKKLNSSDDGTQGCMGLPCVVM
NRAS WT, sequence (P62937 whole entry): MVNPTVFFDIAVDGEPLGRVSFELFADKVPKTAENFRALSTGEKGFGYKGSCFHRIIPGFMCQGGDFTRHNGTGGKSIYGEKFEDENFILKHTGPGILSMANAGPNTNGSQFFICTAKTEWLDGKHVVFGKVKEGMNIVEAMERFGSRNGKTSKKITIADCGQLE
NRAS Q61R, sequence (P01111 whole entry Q61R): as the sequence (P01111 whole entry) above, with Q61R counted along it
NRAS Q61R, sequence (P62937 whole entry): as the sequence (P62937 whole entry) above
KRAS Q61H, sequence (P01116 1-169 isoform P01116-2 Q61H limits assumed): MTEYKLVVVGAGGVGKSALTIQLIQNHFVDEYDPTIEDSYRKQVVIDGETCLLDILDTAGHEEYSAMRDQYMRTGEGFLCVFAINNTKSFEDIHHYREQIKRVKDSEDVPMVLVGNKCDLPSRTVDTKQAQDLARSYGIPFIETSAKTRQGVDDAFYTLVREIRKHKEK
KRAS Q61H, sequence (P62937 whole entry): as the sequence (P62937 whole entry) above
KRAS WT, sequence (P01116 1-169 isoform P01116-2 limits assumed): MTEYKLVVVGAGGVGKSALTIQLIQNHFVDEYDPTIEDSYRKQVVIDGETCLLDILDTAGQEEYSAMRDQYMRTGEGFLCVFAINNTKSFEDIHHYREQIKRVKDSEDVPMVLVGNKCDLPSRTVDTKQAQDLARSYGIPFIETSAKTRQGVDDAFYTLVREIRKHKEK
KRAS WT, sequence (P62937 whole entry): as the sequence (P62937 whole entry) above
KRAS G12V, sequence (P01116 1-169 isoform P01116-2 G12V limits assumed): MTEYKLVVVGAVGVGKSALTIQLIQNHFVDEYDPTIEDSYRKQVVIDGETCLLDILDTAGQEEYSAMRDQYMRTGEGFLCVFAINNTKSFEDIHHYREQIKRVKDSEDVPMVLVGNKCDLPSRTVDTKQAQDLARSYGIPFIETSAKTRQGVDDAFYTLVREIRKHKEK
KRAS G12V, sequence (P62937 whole entry): as the sequence (P62937 whole entry) above
NRAS Q61K, sequence (P01111 whole entry Q61K): as the sequence (P01111 whole entry) above, with Q61K counted along it
NRAS Q61K, sequence (P62937 whole entry): as the sequence (P62937 whole entry) above
KRAS G12C, sequence (P01116 1-169 isoform P01116-2 G12C limits assumed): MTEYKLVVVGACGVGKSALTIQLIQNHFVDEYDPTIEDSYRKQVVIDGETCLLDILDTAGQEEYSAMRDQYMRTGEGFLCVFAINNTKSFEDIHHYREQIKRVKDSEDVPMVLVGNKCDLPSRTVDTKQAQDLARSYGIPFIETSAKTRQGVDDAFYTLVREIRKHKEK
KRAS G12C, sequence (P62937 whole entry): as the sequence (P62937 whole entry) above
KRAS G13D, sequence (P01116 1-169 isoform P01116-2 G13D limits assumed): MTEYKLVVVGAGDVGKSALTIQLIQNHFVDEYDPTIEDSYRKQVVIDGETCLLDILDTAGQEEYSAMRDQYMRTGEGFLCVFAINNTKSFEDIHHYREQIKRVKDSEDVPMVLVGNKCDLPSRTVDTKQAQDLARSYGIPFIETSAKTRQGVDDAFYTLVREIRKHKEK
KRAS G13D, sequence (P62937 whole entry): as the sequence (P62937 whole entry) above
KRAS G12S, sequence (P01116 1-169 isoform P01116-2 G12S limits assumed): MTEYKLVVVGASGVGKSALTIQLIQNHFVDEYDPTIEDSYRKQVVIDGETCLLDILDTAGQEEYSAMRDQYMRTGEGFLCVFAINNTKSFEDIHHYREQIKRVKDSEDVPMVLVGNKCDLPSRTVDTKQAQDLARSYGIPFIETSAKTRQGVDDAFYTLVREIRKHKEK
KRAS G12S, sequence (P62937 whole entry): as the sequence (P62937 whole entry) above
KRAS G13C, sequence (P01116 1-169 isoform P01116-2 G13C limits assumed): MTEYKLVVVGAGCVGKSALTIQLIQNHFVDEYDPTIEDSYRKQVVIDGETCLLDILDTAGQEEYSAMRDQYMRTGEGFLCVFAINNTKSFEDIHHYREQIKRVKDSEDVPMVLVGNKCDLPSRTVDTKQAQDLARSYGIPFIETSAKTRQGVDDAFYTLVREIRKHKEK
KRAS G13C, sequence (P62937 whole entry): as the sequence (P62937 whole entry) above
KRAS G12D, sequence (P01116 1-169 isoform P01116-2 G12D limits assumed): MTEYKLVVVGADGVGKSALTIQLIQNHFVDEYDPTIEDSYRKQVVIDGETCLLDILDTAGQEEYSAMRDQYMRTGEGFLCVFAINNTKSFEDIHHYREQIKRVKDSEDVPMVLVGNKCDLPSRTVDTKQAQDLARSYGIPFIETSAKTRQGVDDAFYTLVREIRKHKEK
KRAS G12D, sequence (P62937 whole entry): as the sequence (P62937 whole entry) above
NRAS G12C, sequence (P01111 whole entry G12C): as the sequence (P01111 whole entry) above, with G12C counted along it
NRAS G12C, sequence (P62937 whole entry): as the sequence (P62937 whole entry) above

| Compound | IC50 [1, 13] | IC50 [2, 14] | IC50 [3, 15] | IC50 [4, 16] | IC50 [5, 17] | IC50 [6, 18] | IC50 [7, 19] | IC50 [8, 20] | IC50 [9, 21] | IC50 [10, 22] | IC50 [11, 23] | IC50 [12, 24] | IC50 [1, 25] | IC50 [2, 26] | IC50 [3, 27] | IC50 [4, 28] | IC50 [5, 29] | IC50 [6] | IC50 [7, 30] | IC50 [8, 31] | also measured |
| --- | --- | --- | --- | --- | --- | --- | --- | --- | --- | --- | --- | --- | --- | --- | --- | --- | --- | --- | --- | --- | --- |
| CCn1c(-c2cccnc2[C@H](C)OC)c2c3cc(ccc31)-c1cc(O)cc(c1)C[C@H](NC(=O)[C@H](C(C)C)N(C)C(=O)CN(C)S(=O)(=O)[C@@H]1CN1C)C(=O)N1CCC[C@H](N1)C(=O)OCC(C)(C)C2 (single isomer, unassigned) [Example 92] | 0.1 to 1 µM | 0.01 to 0.1 µM | 0.1 to 1 µM | 0.01 to 0.1 µM | 0.1 to 1 µM | 0.01 to 0.1 µM | 0.01 to 0.1 µM | 0.01 to 0.1 µM | 0.1 to 1 µM | 0.1 to 1 µM | 0.01 to 0.1 µM | 0.01 to 0.1 µM | – | – | – | – | – | – | – | – | – |
| CCn1c(-c2cccnc2[C@H](C)OC)c2c3cc(ccc31)-c1cc(O)cc(c1)C[C@H](NC(=O)[C@H](C(C)C)N(C)C(=O)C1CCN(S(=O)(=O)[C@H]3CN3C)CC1)C(=O)N1CCC[C@H](N1)C(=O)OCC(C)(C)C2 (single isomer, unassigned) [Example 108] | 1 to 10 µM | 0.1 to 1 µM | 0.1 to 1 µM | 0.01 to 0.1 µM | 0.1 to 1 µM | 0.01 to 0.1 µM | 0.1 to 1 µM | 0.1 to 1 µM | 0.1 to 1 µM | 0.1 to 1 µM | 0.1 to 1 µM | 0.1 to 1 µM | – | – | – | – | – | – | – | – | – |
| CCn1c(-c2cccnc2[C@H](C)OC)c2c3cc(ccc31)-c1cc(O)cc(c1)C[C@H](NC(=O)[C@H](C(C)C)N(C)C(=O)C1CN(S(=O)(=O)[C@H]3CN3C)C1)C(=O)N1CCC[C@H](N1)C(=O)OCC(C)(C)C2 (single isomer, unassigned) [Example 117] | 1 to 10 µM | 0.1 to 1 µM | 0.1 to 1 µM | 0.01 to 0.1 µM | 0.1 to 1 µM | 0.01 to 0.1 µM | 0.1 to 1 µM | 0.1 to 1 µM | 0.1 to 1 µM | 0.1 to 1 µM | 0.01 to 0.1 µM | 0.01 to 0.1 µM | – | – | – | – | – | – | – | – | – |
| CCn1c(-c2cccnc2[C@H](C)OC)c2c3cc(ccc31)-c1cc(O)cc(c1)C[C@H](NC(=O)[C@H](C(C)C)N(C)C(=O)C1CCN(S(=O)(=O)[C@@H]3CN3C)CC1)C(=O)N1CCC[C@H](N1)C(=O)OCC(C)(C)C2 (single isomer, unassigned) [Example 119] | 1 to 10 µM | 0.1 to 1 µM | 0.1 to 1 µM | 0.01 to 0.1 µM | 0.1 to 1 µM | 0.01 to 0.1 µM | 0.1 to 1 µM | 0.1 to 1 µM | 0.1 to 1 µM | 1 to 10 µM | 0.1 to 1 µM | 0.01 to 0.1 µM | – | – | – | – | – | – | – | – | – |
| CCn1c(-c2cccnc2[C@H](C)OC)c2c3cc(ccc31)-c1cc(O)cc(c1)C[C@H](NC(=O)[C@H](C1CCCC1)N(C)C(=O)CN(C)C(=O)[C@@H]1N[C@@H]1C1(C#N)CC1)C(=O)N1CCC[C@H](N1)C(=O)OCC(C)(C)C2 (single isomer, unassigned) [Example 308] | – | – | – | – | – | – | – | – | – | – | – | – | 0.1 to 1 µM | 0.01 to 0.1 µM | 0.1 to 1 µM | 0.01 to 0.1 µM | 0.1 to 1 µM | 0.01 to 0.1 µM | 0.01 to 0.1 µM | 0.01 to 0.1 µM | IC50 [9]: 0.1 to 1 µM; IC50 [10]: 0.1 to 1 µM; IC50 [11]: 0.01 to 0.1 µM; IC50 [12, 32]: 0.01 to 0.1 µM |
| CCn1c(-c2cccnc2[C@H](C)OC)c2c3cc(ccc31)-c1cc(O)cc(c1)C[C@H](NC(=O)[C@H](C1CCCC1)N(C)C(=O)CN(C)C(=O)[C@H]1N[C@H]1C1(OC)CC1)C(=O)N1CCC[C@H](N1)C(=O)OCC(C)(C)C2 (single isomer, unassigned) [Example 322] | – | – | – | – | – | – | – | – | – | – | – | – | 0.1 to 1 µM | 0.01 to 0.1 µM | 0.01 to 0.1 µM | 0.01 to 0.1 µM | 0.1 to 1 µM | 0.01 to 0.1 µM | 0.01 to 0.1 µM | 0.01 to 0.1 µM | IC50 [9]: 0.1 to 1 µM; IC50 [10]: 0.1 to 1 µM; IC50 [11]: 0.01 to 0.1 µM; IC50 [12, 32]: 0.01 to 0.1 µM |

Source: patent US20230233569A1 (Revolution Medicines, Inc., priority 2020, published 2023)
